{"source": "patent US8808722B2", "about": "“Stable antiseptic compositions and methods” (3M Innovative Properties Company, priority 2010, dated 2014)", "origin": "cited, not measured here", "settings": "at 25° C."}
{"smiles": "II", "note": "[elemental iodine, iodine]", "values": [{"measurement": "solubility in water", "value": 0.03, "unit": "wt-%"}]}
